Assay results as given in patent US11254663B2 (BRISTOL-MYERS SQUIBB COMPANY, priority 2019, dated 2022).

Target: FXR (Homo sapiens (Human), UniProt Q96RI1)
Experiment: FXR EC50 (FXR agonist potency reported with each Example)
Assay type: cell-based

Chain of FXR (Q96RI1 262-486): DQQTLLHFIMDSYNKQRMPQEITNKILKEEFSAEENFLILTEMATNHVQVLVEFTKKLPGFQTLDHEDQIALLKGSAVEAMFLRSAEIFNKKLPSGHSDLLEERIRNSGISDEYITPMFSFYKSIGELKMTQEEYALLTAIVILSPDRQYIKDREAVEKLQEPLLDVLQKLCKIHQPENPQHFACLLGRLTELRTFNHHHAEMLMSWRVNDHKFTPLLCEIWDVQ

SMILES | EC50 [nM]
Cc1cc(C23CCC(CN(C(=O)C45CC(F)(C4)C5)c4cccc(-c5nc(C6CC6)no5)c4)(CC2)CC3)ccn1 [Example 32, N-(3-(3-cyclopropyl-1,2,4-oxadiazol-5-yl)phenyl)-3-fluoro-N-((4-(2-methylpyridin-4-yl)bicyclo[2.2.2]octan-1-yl)methyl)bicyclo[1.1.1]pentane-1-carboxamide] | 756
CC(C)c1noc(C23CCC(CN(C(=O)C45CC(F)(C4)C5)c4cccc(-c5noc(C6(C)CC6)n5)c4)(CC2)CC3)n1 [Example 175, 3-fluoro-N-((4-(3-isopropyl-1,2,4-oxadiazol-5-yl)bicyclo[2.2.2]octan-1-yl)methyl)-N-(3-(5-(1-methylcyclopropyl)-1,2,4-oxadiazol-3-yl)phenyl)bicyclo[1.1.1]pentane-1-carboxamide] | 54
CC(C)(C)c1nc(C23CCC(CN(C(=O)C45CC(F)(C4)C5)c4cccc(-c5nc(C6CC6)no5)c4)(CC2)CC3)no1 [Example 119, N-((4-(5-(tert-butyl)-1,2,4-oxadiazol-3-yl)bicyclo[2.2.2]octan-1-yl)methyl)-N-(3-(3-cyclopropyl-1,2,4-oxadiazol-5-yl)phenyl)-3-fluorobicyclo[1.1.1]pentane-1-carboxamide] | 15
O=C(N(CC12CCC(c3ccc(C(F)(F)F)cn3)(CC1)CC2)c1cccc(-c2noc(C(F)F)n2)c1)C12CC(F)(C1)C2 [Example 189, N-(3-(5-(difluoromethyl)-1,2,4-oxadiazol-3-yl)phenyl)-3-fluoro-N-((4-(5-(trifluoromethyl)pyridin-2-yl)bicyclo[2.2.2]octan-1-yl)methyl)bicyclo[1.1.1]pentane-1-carboxamide] | 691
CC(C)(O)c1coc(-c2cccc(N(CC34CCC(c5nc(C6CC6)no5)(CC3)CC4)C(=O)C3CCC(F)(F)C3)c2)n1 (stereo not drawn) [Example 18, N-((4-(3-cyclopropyl-1,2,4-oxadiazol-5-yl)bicyclo[2.2.2]octan-1-yl)methyl)-3,3-difluoro-N-(3-(4-(2-hydroxypropan-2-yl)oxazol-2-yl)phenyl)cyclopentane-1-carboxamide] | 154
O=C(C1CC(F)(F)C1)N(CC12CCC(c3nc(CC4CC4)no3)(CC1)CC2)c1cccc(-c2nc(CC3CC3)no2)c1 [Example 63, N-((4-(3-(cyclopropylmethyl)-1,2,4-oxadiazol-5-yl)bicyclo[2.2.2]octan-1-yl)methyl)-N-(3-(3-(cyclopropylmethyl)-1,2,4-oxadiazol-5-yl)phenyl)-3,3-difluorocyclobutane-1-carboxamide] | 562
CCOC(=O)c1coc(-c2cccc(N(CC34CCC(c5nc(C6CC6)no5)(CC3)CC4)C(=O)C34CC(F)(C3)C4)c2)n1 [Example 13, Ethyl 2-(3-(N-((4-(3-cyclopropyl-1,2,4-oxadiazol-5-yl)bicyclo[2.2.2]octan-1-yl)methyl)-3-fluorobicyclo[1.1.1]pentane-1-carboxamido)phenyl)oxazole-4-carboxylate] | 512
COCc1nc(-c2cccc(N(CC34CCC(c5nc(C6CC6)no5)(CC3)CC4)C(=O)C3CCC(F)(F)C3)c2)cs1 (stereo not drawn) [Example 74, N-((4-(3-cyclopropyl-1,2,4-oxadiazol-5-yl)bicyclo[2.2.2]octan-1-yl)methyl)-3,3-difluoro-N-(3-(2-(methoxymethyl)thiazol-4-yl)phenyl)cyclopentane-1-carb oxamide] | 220
Cn1nc(C(C)(C)C)cc1-c1cccc(N(CC23CCC(c4noc(C(C)(C)C)n4)(CC2)CC3)C(=O)C23CC(F)(C2)C3)c1 [Example 213, N-((4-(5-(tert-butyl)-1,2,4-oxadiazol-3-yl)bicyclo[2.2.2]octan-1-yl)methyl)-N-(3-(3-(tert-butyl)-1-methyl-1H-pyrazol-5-yl)phenyl)-3-fluorobicyclo[1.1.1]pentane-1-carboxamide] | 198
